Results: ChEMBL document CHEMBL4342482 (ACS Med Chem Lett, 2020)
Calls of active or inactive are those of the source. The rule behind the calls is not given here.

What was measured:
[1] = target: T1, Phosphatidylinositol 3,4,5-trisphosphate 5-phosphatase 2 (Homo sapiens) (UniProt O15357); experiment: Substrate activity at recombinant human N-terminal His-tagged SHIP2 (419 to 832 residues) expressed in Escherichia coli Rosetta2 (DE3) cells assessed as 5-OH-Bz(1,2,4)P3 product formation at 100 uM incubated for 2 hrs with 100 nM to 1 mM of SHIP2 by fluorescence based HPLC analysis
T1 sequence (whole entry): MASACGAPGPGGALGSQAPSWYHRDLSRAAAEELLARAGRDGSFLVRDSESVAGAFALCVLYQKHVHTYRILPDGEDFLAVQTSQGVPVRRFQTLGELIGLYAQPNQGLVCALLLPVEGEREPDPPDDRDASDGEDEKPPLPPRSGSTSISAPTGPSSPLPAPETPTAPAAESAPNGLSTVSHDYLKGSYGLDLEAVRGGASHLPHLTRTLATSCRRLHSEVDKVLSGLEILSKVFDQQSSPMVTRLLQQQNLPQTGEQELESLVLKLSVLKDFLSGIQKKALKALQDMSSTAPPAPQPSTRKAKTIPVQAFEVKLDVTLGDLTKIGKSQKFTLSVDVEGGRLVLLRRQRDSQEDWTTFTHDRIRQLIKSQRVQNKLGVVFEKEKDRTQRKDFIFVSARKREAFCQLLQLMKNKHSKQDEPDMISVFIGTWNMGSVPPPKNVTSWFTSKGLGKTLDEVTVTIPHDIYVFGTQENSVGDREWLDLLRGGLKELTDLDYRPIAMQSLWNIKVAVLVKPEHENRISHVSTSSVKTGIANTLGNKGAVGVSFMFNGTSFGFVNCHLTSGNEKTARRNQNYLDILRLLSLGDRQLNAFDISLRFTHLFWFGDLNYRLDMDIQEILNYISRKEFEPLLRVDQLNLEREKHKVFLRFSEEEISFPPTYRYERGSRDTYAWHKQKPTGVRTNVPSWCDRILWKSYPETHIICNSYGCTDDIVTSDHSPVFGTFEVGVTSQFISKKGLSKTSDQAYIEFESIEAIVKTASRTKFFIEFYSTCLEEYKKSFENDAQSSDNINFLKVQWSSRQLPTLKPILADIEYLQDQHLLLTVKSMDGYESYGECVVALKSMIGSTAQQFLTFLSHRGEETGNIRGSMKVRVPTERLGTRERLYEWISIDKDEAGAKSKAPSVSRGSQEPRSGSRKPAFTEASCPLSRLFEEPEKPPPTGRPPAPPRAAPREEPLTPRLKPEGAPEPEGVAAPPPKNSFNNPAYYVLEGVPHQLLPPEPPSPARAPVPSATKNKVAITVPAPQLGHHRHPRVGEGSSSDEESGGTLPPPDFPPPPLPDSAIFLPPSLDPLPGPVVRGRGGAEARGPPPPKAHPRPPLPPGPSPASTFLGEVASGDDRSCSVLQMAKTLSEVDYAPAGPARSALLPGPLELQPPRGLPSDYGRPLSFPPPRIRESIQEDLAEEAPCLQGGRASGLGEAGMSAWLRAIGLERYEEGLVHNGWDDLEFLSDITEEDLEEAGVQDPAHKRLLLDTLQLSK

[2] = target: T2, Phosphatidylinositol 3,4,5-trisphosphate 5-phosphatase 2 (Homo sapiens, UniProt O15357); experiment: Displacement of 2FAMInsP5 from recombinant human N-terminal His-tagged SHIP2 (419 to 832 residues) expressed in Escherichia coli Rosetta2 (DE3) cells by fluorescence polarization assay
T2 sequence (O15357 whole entry): T1 sequence (whole entry)

[3] = target: T1, Phosphatidylinositol 3,4,5-trisphosphate 5-phosphatase 2 (Homo sapiens); experiment: Substrate activity at recombinant human N-terminal His-tagged SHIP2 (419 to 832 residues) expressed in Escherichia coli Rosetta2 (DE3) cells assessed as 5-OH-Bz(1,2,4)P3 product formation at 100 uM incubated for 2 hrs by fluorescence based HPLC analysis
[4] = target: T1, Phosphatidylinositol 3,4,5-trisphosphate 5-phosphatase 2 (Homo sapiens); experiment: Substrate activity at recombinant human N-terminal His-tagged SHIP2 (419 to 832 residues) expressed in Escherichia coli Rosetta2 (DE3) cells assessed as 5-OH-Bz(1,2,4)P3 product formation at 100 uM measured upto 4 hrs by fluorescence based HPLC analysis
[5] = target: T1, Phosphatidylinositol 3,4,5-trisphosphate 5-phosphatase 2 (Homo sapiens); experiment: Substrate activity at recombinant human N-terminal His-tagged SHIP2 (419 to 832 residues) expressed in Escherichia coli Rosetta2 (DE3) cells assessed as 5-OH-Bz(1,2,4)P3 product formation at 100 uM incubated for 12 hrs by fluorescence based HPLC analysis
[6] = target: T1, Phosphatidylinositol 3,4,5-trisphosphate 5-phosphatase 2 (Homo sapiens); experiment: Substrate activity at recombinant human N-terminal His-tagged SHIP2 (419 to 832 residues) expressed in Escherichia coli Rosetta2 (DE3) cells assessed as 5-OH-Bz(1,2,4)P3 product formation at 100 uM incubated for 2 hrs in presence of AS1949490 by fluorescence based HPLC analysis
[7] = target: T3, Inositol polyphosphate-5-phosphatase A (Homo sapiens, UniProt Q14642); experiment: Inhibition of recombinant human brain INPP5A expressed in Escherichia coli incubated for 10 mins by malachite green reagent based phosphate assay
T3 sequence (Q14642 whole entry): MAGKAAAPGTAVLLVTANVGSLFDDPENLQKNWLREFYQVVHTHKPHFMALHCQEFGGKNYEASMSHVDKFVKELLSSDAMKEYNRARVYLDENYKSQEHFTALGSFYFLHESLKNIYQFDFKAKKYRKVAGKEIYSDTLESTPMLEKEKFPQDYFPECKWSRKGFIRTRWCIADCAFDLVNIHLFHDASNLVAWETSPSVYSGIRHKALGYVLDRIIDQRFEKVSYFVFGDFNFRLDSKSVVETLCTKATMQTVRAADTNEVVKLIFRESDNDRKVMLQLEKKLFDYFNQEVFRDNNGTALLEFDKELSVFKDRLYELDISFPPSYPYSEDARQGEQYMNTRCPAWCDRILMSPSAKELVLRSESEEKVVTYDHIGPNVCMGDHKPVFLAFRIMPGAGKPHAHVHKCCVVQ

[8] = target: T1, Phosphatidylinositol 3,4,5-trisphosphate 5-phosphatase 2 (Homo sapiens); experiment: Substrate activity at recombinant human N-terminal His-tagged SHIP2 (419 to 832 residues) expressed in Escherichia coli Rosetta2 (DE3) cells assessed as 5-OH-Bz(1,2,4)P3 product formation at 100 uM incubated for 2 hrs in presence of INS(1,3,4,5)P4 by fluorescence based HPLC analysis
[9] = target: T1, Phosphatidylinositol 3,4,5-trisphosphate 5-phosphatase 2 (Homo sapiens); experiment: Binding affinity to recombinant human N-terminal His-tagged SHIP2 (419 to 832 residues) expressed in Escherichia coli Rosetta2 (DE3) cells assessed as increase in release of phosphate at 100 uM incubated for 10 mins by phosphate release assay
[10] = target: T1, Phosphatidylinositol 3,4,5-trisphosphate 5-phosphatase 2 (Homo sapiens); experiment: Substrate activity at recombinant human N-terminal His-tagged SHIP2 (419 to 832 residues) expressed in Escherichia coli Rosetta2 (DE3) cells assessed as 1,2-diOH-Bz(3,4)P2 product formation at 100 uM incubated for 2 hrs in presence of AS1949490 by fluorescence based HPLC analysis
[11] = target: T1, Phosphatidylinositol 3,4,5-trisphosphate 5-phosphatase 2 (Homo sapiens); experiment: Substrate activity at recombinant human N-terminal His-tagged SHIP2 (419 to 832 residues) expressed in Escherichia coli Rosetta2 (DE3) cells assessed as 1,3-Di-OH-Bz(2,4)P2 product formation at 100 uM incubated for 2 hrs in presence of AS1949490 by fluorescence based HPLC analysis
[12] = target: T2, Phosphatidylinositol 3,4,5-trisphosphate 5-phosphatase 2; experiment: Displacement of Ins(1,3,4,5)P4 from recombinant human N-terminal His-tagged SHIP2 (419 to 832 residues) expressed in Escherichia coli BL21 (DE3)
[13] = target: Type II inositol 1,4,5-trisphosphate 5-phosphatase (Homo sapiens, UniProt P32019); experiment: Inhibition of recombinant human C-terminal His-tagged INPP5B (259 to 563 residues) expressed in Escherichia coli BL21 (DE3) incubated for 5 mins using Ins(1,4,5)P3 as substrate by malachite green reagent based phosphate assay
Type II inositol 1,4,5-trisphosphate 5-phosphatase, sequence (P32019 whole entry, the tested form may be a part): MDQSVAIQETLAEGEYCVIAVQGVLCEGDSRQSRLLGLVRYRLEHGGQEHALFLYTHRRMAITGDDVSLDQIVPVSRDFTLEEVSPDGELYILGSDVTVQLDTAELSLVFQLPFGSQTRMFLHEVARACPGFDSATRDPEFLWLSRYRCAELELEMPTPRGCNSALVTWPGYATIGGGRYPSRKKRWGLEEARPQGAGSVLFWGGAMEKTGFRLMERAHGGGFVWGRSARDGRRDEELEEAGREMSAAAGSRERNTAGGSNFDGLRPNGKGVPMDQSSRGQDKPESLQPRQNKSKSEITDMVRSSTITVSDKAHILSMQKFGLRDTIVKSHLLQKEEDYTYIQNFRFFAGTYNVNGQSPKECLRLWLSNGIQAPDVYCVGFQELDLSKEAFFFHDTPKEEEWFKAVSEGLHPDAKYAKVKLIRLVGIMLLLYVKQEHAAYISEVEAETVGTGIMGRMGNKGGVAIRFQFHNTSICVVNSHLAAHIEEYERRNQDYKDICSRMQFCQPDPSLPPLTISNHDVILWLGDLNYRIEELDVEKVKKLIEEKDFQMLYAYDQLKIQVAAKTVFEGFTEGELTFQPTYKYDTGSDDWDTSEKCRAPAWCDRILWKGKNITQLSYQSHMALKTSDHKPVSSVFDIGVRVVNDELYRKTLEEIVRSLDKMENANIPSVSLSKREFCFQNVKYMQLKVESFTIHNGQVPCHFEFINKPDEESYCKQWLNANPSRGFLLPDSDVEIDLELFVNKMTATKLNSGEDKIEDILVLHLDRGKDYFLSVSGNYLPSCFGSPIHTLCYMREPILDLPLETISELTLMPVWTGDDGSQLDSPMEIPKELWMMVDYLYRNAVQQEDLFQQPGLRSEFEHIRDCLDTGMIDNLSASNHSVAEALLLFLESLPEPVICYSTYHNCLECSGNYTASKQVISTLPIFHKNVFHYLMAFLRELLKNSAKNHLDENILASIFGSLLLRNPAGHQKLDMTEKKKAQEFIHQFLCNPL

[14] = target: T1, Phosphatidylinositol 3,4,5-trisphosphate 5-phosphatase 2 (Homo sapiens); experiment: Substrate activity at recombinant human N-terminal His-tagged SHIP2 (419 to 832 residues) expressed in Escherichia coli Rosetta2 (DE3) cells assessed as 3-OH-Bz(1,2,4)P3 product formation at 100 uM incubated for 2 hrs in presence of AS1949490 by fluorescence based HPLC analysis

Structure (SMILES) | IC50 [2] [µM] | IC50 [7] [µM] | Activity [9] | further results
O=P(O)(O)Oc1cc(OP(=O)(O)O)c(OP(=O)(O)O)cc1OP(=O)(O)O | 1.02 | 4 | Active | Activity [1]: Active; Activity [3]: Active; Activity [4]: Active; Activity [5]: Active; Activity [6]: inactive; Activity [8]: Active
O=P(O)(O)Oc1cc(OP(=O)(O)O)c(OP(=O)(O)O)c(OP(=O)(O)O)c1 | 1.01 | 78 | Active | –
O=P(O)(O)Oc1ccc(OP(=O)(O)O)c(OP(=O)(O)O)c1 | 7.02 | 14 | Active | –
O=P(O)(O)Oc1ccc(OP(=O)(O)O)c(OP(=O)(O)O)c1O | – | – | – | Activity [10]: Active; Activity [11]: inactive
O=P(O)(O)Oc1cccc(OP(=O)(O)O)c1OP(=O)(O)O | 14.2 | 86 | Active | IC50 [12]: > 1000 µM; IC50 [13]: 33.5 µM
O=P(O)(O)Oc1cc(OP(=O)(O)O)cc(OP(=O)(O)O)c1 | 11.3 | 16 | Active | –
O=P(O)(O)Oc1ccc(OP(=O)(O)O)c(OP(=O)(O)O)c1OP(=O)(O)O | 2.78 | 98 | Active | Activity [10]: Active; Activity [14]: inactive
